One series deals with T1, Trypsin (Bos taurus, UniProt P00760).
T1 sequence (P00760 24-246): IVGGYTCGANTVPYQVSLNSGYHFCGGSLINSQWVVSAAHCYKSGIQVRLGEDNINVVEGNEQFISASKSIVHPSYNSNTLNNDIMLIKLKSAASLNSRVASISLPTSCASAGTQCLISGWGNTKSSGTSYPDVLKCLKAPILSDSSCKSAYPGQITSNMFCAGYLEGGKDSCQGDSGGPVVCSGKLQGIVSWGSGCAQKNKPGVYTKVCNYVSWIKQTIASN
The series can be described thus: Anti-trypsin activity (inhibition of TAME hydrolysis). Type of series: biochemical. To be noted: read-out: ID50, Trypsin.

The target of a further series is Plasmin (Homo sapiens, UniProt P00747). The series can be described thus: Anti-plasmin activity (inhibition of TAME hydrolysis). Type of series: biochemical.
Sequence of Plasmin (P00747 97-580 limits assumed, species assumed): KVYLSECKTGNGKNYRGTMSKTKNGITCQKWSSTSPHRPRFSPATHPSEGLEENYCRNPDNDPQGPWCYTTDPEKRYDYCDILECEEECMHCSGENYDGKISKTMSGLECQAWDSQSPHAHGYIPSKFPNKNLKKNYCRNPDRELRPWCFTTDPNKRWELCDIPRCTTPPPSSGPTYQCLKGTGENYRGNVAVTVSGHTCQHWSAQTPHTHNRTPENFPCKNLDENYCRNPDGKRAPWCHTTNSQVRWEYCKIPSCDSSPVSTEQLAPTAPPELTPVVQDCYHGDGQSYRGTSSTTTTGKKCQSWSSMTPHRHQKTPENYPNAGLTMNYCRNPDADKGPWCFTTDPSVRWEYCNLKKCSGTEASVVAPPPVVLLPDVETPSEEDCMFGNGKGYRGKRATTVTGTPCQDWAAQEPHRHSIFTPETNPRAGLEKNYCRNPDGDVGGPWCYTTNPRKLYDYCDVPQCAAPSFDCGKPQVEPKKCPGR
Sequence of Plasmin (P00747 581-810 limits assumed, species assumed): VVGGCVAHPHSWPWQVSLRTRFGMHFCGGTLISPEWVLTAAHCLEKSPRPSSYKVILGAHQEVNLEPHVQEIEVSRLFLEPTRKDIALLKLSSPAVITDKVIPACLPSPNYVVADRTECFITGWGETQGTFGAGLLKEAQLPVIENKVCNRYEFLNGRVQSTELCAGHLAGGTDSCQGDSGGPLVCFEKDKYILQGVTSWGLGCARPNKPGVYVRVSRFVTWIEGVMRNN
In another series the test system is Kallikrein. The series can be described thus: Anti-kallikrein activity (inhibition of TAME hydrolysis). To be noted: read-out: ID50, Kallikrein. Type of series: biochemical.
The target in a further series is Thrombin (Homo sapiens, UniProt P00734). Briefly: biochemical. To be noted: TAME hydrolysis; read-out: ID50, Thrombin.
The next series deals with T2, C1r (Homo sapiens, UniProt P00736).
T2 sequence (P00736 18-463 limits assumed): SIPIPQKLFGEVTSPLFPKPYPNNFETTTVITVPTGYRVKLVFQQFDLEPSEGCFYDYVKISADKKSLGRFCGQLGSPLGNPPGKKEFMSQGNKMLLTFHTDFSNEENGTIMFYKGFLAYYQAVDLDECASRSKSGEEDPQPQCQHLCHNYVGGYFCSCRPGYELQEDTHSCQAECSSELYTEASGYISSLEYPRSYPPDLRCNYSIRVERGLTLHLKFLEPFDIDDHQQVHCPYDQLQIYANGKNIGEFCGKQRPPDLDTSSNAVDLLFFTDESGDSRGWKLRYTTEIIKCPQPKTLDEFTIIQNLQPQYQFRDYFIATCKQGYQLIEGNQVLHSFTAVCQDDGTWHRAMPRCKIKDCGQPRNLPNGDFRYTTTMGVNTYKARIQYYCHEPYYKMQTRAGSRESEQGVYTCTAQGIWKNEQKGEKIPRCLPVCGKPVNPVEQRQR
T2 sequence (P00736 464-705 limits assumed): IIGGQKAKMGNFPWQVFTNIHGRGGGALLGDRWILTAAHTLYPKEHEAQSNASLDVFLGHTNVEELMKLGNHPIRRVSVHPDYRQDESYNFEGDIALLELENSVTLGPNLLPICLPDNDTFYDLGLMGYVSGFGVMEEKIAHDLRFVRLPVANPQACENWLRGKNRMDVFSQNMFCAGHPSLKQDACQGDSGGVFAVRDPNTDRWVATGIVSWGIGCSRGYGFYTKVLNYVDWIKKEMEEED
The series can be described thus: Anti-C1r activity (inhibition of AAME hydrolysis). To be noted: at 1×10^-5 M; read-out: percent inhibition, C1r (figure in parentheses). Type of series: biochemical. The method, then:
The anti-C1 esterase (C1r, C1s) activity was determined according to the method of Okamura et al. [K. Okamura, M. Muramatsu and B. Fujii, Biochem. Biophys. Acta, 295, 252-257 (1973)]. (2) The inhibition of complement mediated hemolysis was determined according to the method of Baker et al. [B. R. Baker and E. H. Erickson, J. Med. Chem., 12, 408-414 (1969)]. The figures in Table 2 have the following meanings: C1r: […]

The target in another series is T3, C1s (Homo sapiens, UniProt P09871).
T3 sequence (P09871 16-437 limits assumed): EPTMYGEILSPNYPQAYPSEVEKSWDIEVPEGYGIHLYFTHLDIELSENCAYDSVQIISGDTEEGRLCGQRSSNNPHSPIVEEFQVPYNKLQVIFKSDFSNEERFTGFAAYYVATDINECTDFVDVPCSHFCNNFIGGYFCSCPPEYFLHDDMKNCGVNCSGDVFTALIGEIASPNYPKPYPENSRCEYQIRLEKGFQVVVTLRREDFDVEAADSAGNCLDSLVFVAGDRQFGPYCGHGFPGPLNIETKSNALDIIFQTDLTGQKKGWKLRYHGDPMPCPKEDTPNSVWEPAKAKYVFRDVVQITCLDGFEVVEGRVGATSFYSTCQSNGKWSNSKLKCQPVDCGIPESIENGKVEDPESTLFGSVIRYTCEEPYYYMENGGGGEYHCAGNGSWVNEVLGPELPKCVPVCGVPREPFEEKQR
T3 sequence (P09871 438-688 limits assumed): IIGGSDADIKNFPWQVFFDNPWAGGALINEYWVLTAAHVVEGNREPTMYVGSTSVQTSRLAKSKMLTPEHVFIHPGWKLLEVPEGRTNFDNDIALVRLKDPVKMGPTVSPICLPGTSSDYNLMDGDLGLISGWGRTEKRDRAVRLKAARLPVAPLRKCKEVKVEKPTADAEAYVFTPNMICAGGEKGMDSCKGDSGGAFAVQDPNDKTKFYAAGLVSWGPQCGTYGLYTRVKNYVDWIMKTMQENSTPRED
Briefly: Anti-C1s activity (inhibition of ATEE hydrolysis). Type of series: biochemical. To be noted: read-out: ID50, C1s. The protocol:
The anti-C1 esterase (C1r, C1s) activity was determined according to the method of Okamura et al. [K. Okamura, M. Muramatsu and B. Fujii, Biochem. Biophys. Acta, 295, 252-257 (1973)]. (2) The inhibition of complement mediated hemolysis was determined according to the method of Baker et al. [B. R. Baker and E. H. Erickson, J. Med. Chem., 12, 408-414 (1969)]. The figures in Table 2 have the following meanings:
C1s: Molar concentration of the test compound which inhibits 50% of the ability of C1s to hydrolyse ATEE (acetyltyrosin ethyl ester) (ID50).

The test system of series [1] is complement mediated hemolysis. The series can be described thus: Inhibition of complement mediated hemolysis. Type of series: cell-based.
From the text: Therefore, when a known amount of complement admixed with a C1 esterase inhibitor is used, the hemolysis must be suppressed in proportion to the inhibitory activity.
Another series relates to Forssman shock. Briefly: Forssman shock. Type of series: in vivo. To be noted: guinea pig, 100 mg/kg orally before i.v. hemolysin, individual animals; for time elapsed until death: 100 mg/kg. The source says:
Quite different from other animals, guinea pig has on the surface of its organs a specific antigen called Forssman antigen which specifically reacts with the antibody of sheep erythrocyte. Forssman shock is based on the above principle and is a shock caused by the administration of antibody of sheep erythrocyte to a guinea pig. The Forssman shock was investigated in detail by many researches and it was definitely shown that this shock is a model case where the complement plays the principal part and that the shock is associated with a classical pathway in which the complement system is activated progressively starting from C1. Since the participation of complement in autoimmune diseases has been established, the Forssman shock can be said to be useful means for testing a drug for autoimmune diseases. A drug effective for the treatment of Forssman shock is useful as a drug of autoimmune diseases.
The experiment was performed according to the method of I. G. Offerness et al. [Biochem. Pharmacol., 27 (14), 1873-1878 (1978)]. Male Hartley guinea pigs of about 350 g in body weight were used. Each guinea pig of the control group was administered intravenously with hemolysin (minimum dose to cause the shock) (commercial hemolysin, 5,000 U as assayed by the method of Ogata) and the time elapsed until death was observed. Each guinea pig of the treated group was administered intravenously with hemolysin after the animal was administered orally with compounds (100 mg/kg) and the time elapsed until death was observed.

Series [2] in a line: Toxicity (median lethal dose). To be noted: in vivo, mouse.
[3] abbreviates: TAME hydrolysis, read-out: ID50, Plasmin.

Structures are written as SMILES. Values joined by “and” are separate entries in the source; they are usually repeats but may differ in a detail not shown here. Equal values may be shown once. Read-outs that look alike come from different tables or passages of the source. Some results are limits rather than exact numbers.

For orientation: inhibition means the share of the control response that was lost under treatment. One may read the LD50 as the dose expected to kill half of the subjects tested. Read a low LD50 as a more toxic substance.

Take `CN=C(NC)Nc1ccc(C(=O)Oc2ccc3cc(C(=N)N)ccc3c2)cc1` [Compound No. 1, 6-amidino-2-naphthyl 4-(2,3-dimethyl)guanidino-benzoate]: the IC50 at Trypsin was determined as 10 µM; at Plasmin (setting [3]) it was 0.8 µM; in the series on Kallikrein it was 0.7 µM; on Thrombin, 9 µM; at C1s it was 0.4 µM. On C1r, the inhibition at 10 µM was determined as 32%. Further, the “Inhibition of complement mediated hemolysis (%)” value (from here on “Inhibition … (%)”) in [1] (1 × 10^-5) was 97%; in series [1] (1 × 10^-6) it was 70%; in series [1] (1 × 10^-7) it was 6%. The “Survival (instead of time elapsed until death)” value in the series with Forssman shock is recorded as “Survival”. Further, the “time elapsed until death” value in the series on Forssman shock was 1291 s and 390 s and 504 s and 613 s and 404 s and 868 s.
Regarding `N=C(N)c1ccc2cc(OC(=O)c3ccc(NC4=NCCN4)cc3)ccc2c1` [Compound No. 2, 6-amidino-2-naphthyl 4-(2-imidazolinyl)amino-benzoate], the IC50 is 1 µM on Trypsin, 2 µM against Plasmin and 0.7 µM at C1s. In addition, on C1r, the inhibition at 10 µM came to 35%. Moreover, the “Inhibition … (%)” value in [1] (1 × 10^-5) worked out at 100%; in series [1] (1 × 10^-6), 91%; in [1] (1 × 10^-7), 29%. Besides, the “time elapsed until death” value in the series with Forssman shock was 1108 s and 1255 s and 980 s and 855 s. For the same molecule, the LD50 is 19 mg/kg in series [2] (iv, I.V.) and more than 3000 mg/kg in series [2] (po, P.O.).
As to `N=C(NCCOCc1ccccc1)Nc1ccc(C(=O)Oc2ccc3cc(C(=N)N)ccc3c2)cc1` [compound 18], the IC50 at Trypsin came to 2 µM; on Plasmin (setting [3]), 0.6 µM; in the series on Kallikrein, 2 µM; at Thrombin, 5 µM; on C1s, 2 µM. The inhibition at 10 µM on C1r turned out to be 37%. For the same molecule, the entries for the “Inhibition … (%)” value in [1] (1 × 10^-5), in series [1] (1 × 10^-6) and in series [1] (1 × 10^-7) were 100%, 100% and 46%, respectively.

The values are drawn from patent publication US4777182A, “6-Amidino-2-naphthyl 4-guanidinobenzoate derivatives and pharmaceutical composition containing them” (Torii & Co., Ltd., priority 1984, dated 1988).
